Data published in US9593108B2, “Compounds and methods for antiviral treatment” (PTC Therapeutics, Inc., priority 2009, dated 2017).

Columns and labels:
[1] = tested on: HCV replicon RNA (GenBank Accession No. AJ242654); assay: HCV Replicon Assay (replicon RNA reduction and/or Fluc reporter signal); type: cell-based, Hepatitis C virus; conditions: Hepatitis C virus, 72 h, replicon-containing cells cultured with test compound for up to 3 days
Summary of the method: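 IC50 values mostly reflect the drop in replicon RNA, though Fluc reporter signal may also be used. Compound incubated with cells carrying the bicistronic replicon for as long as 3 days; interferon served as positive control.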

| SMILES | IC50 [1] [nM] | melting point [°C] |
| --- | --- | --- |
| C[C@@H](NS(=O)(=O)c1ccc(-c2c(C#N)c3cc(Cl)cnc3n2C2CCC2)nc1)C(F)(F)F [Cpd 50, 6-(5-chloro-3-cyano-1-cyclobutyl-1H-pyrrolo[2,3-b]pyridin-2-yl)-N-[(2R)-1,1,1-trifluoropropan-2-yl]pyridine-3-sulfonamide] | < 500 | 202 to 203 |
| C[C@H](NS(=O)(=O)c1ccc(-c2c(C#N)c3cc(Cl)cnc3n2C2CCC2)nc1)C(F)(F)F [Cpd 51, 6-(5-chloro-3-cyano-1-cyclobutyl-1H-pyrrolo[2,3-b]pyridin-2-yl)-N-[(2S)-1,1,1-trifluoropropan-2-yl]pyridine-3-sulfonamide] | < 500 | 203 to 204 |
| CC(C)(C)NS(=O)(=O)c1ccc(-c2c(C#N)c3cc(Cl)cnc3n2C2CCC2)nc1 [Cpd 52, N-tert-butyl-6-(5-chloro-3-cyano-1-cyclobutyl-1H-pyrrolo[2,3-b]pyridin-2-yl)pyridine-3-sulfonamide] | < 500 | 207 to 208 |
| Cc1ncc2c(C#N)c(-c3ccc(S(=O)(=O)NC(C)(C)C(F)(F)F)cc3)n(C3CCC3)c2n1 [Cpd 53, 4-(5-cyano-7-cyclobutyl-2-methyl-7H-pyrrolo[2,3-d]pyrimidin-6-yl)-N-(1,1,1-trifluoro-2-methylpropan-2-yl)benzenesulfonamide] | < 500 | 211 to 214 |
| C[C@H](NS(=O)(=O)c1ccc(-c2c(C#N)c3ccc(OC(F)F)nc3n2C2CCC2)nc1)C(F)(F)F [Cpd 54, 6-[3-cyano-1-cyclobutyl-6-(difluoromethoxy)-1H-pyrrolo[2,3-b]pyridin-2-yl]-N-[(2S)-1,1,1-trifluoropropan-2-yl]pyridine-3-sulfonamide] | < 500 | 176 to 177 |
| N#Cc1c(-c2ncc(S(=O)(=O)NC(CF)CF)cn2)n(C2CCC2)c2nc(OC(F)F)ccc12 [Cpd 55, 2-[3-cyano-1-cyclobutyl-6-(difluoromethoxy)-1H-pyrrolo[2,3-b]pyridin-2-yl]-N-(1,3-difluoropropan-2-yl)pyrimidine-5-sulfonamide] | < 500 | 234 to 236 |
| CC(C)(NS(=O)(=O)c1ccc(-c2c(C#N)c3cc(Cl)cnc3n2C2CCC2)nc1)C(F)(F)F [Cpd 56, 6-(5-chloro-3-cyano-1-cyclobutyl-1H-pyrrolo[2,3-b]pyridin-2-yl)-N-(1,1,1-trifluoro-2-methylpropan-2-yl)pyridine-3-sulfonamide] | < 500 | 221 to 222 |
| N#Cc1c(-c2ccc(S(=O)(=O)NC3(C(F)(F)F)CC3)cn2)n(C2CCC2)c2ncc(Cl)cc12 [Cpd 57, 6-(5-chloro-3-cyano-1-cyclobutyl-1H-pyrrolo[2,3-b]pyridin-2-yl)-N-[1-(trifluoromethyl)cyclopropyl]pyridine-3-sulfonamide] | < 500 | 254 to 255 |
| CC(C)NS(=O)(=O)c1cnc(-c2c(C#N)c3cc(Cl)cnc3n2C2CCC2)nc1 [Cpd 58, 2-(5-chloro-3-cyano-1-cyclobutyl-1H-pyrrolo[2,3-b]pyridin-2-yl)-N-(propan-2-yl)pyrimidine-5-sulfonamide] | < 500 | 224 to 225 |
| C[C@@H](NS(=O)(=O)c1ccc(-c2c(C#N)c3cc(Cl)cnc3n2CC2CC2)nc1)C(F)(F)F [Cpd 59, 6-[5-chloro-3-cyano-1-(cyclopropylmethyl)-1H-pyrrolo[2,3-b]pyridin-2-yl]-N-[(2R)-1,1,1-trifluoropropan-2-yl]pyridine-3-sulfonamide] | 500 to 2000 | 224 to 226 |
| C[C@@H](NS(=O)(=O)c1ccc(-c2c(C#N)c3cc(F)cnc3n2CC2CC2)nc1)C(F)(F)F [Cpd 60, 6-[3-cyano-1-(cyclopropylmethyl)-5-fluoro-1H-pyrrolo[2,3-b]pyridin-2-yl]-N-[(2R)-1,1,1-trifluoropropan-2-yl]pyridine-3-sulfonamide] | < 500 | 185 to 187 |
| C[C@H](NS(=O)(=O)c1ccc(-c2c(C#N)c3cc(Cl)cnc3n2C2CCC2)cc1)C(F)(F)F [Cpd 61, 4-(5-chloro-3-cyano-1-cyclobutyl-1H-pyrrolo[2,3-b]pyridin-2-yl)-N-[(2S)-1,1,1-trifluoropropan-2-yl]benzenesulfonamide] | < 500 | 220 to 222 |
| C[C@H](NS(=O)(=O)c1ccc(-c2c(C#N)c3cnc(OC(F)F)nc3n2C2CCC2)nc1)C(F)(F)F [Cpd 62, 6-[5-cyano-7-cyclobutyl-2-(difluoromethoxy)-7H-pyrrolo[2,3-d]pyrimidin-6-yl]-N-[(2S)-1,1,1-trifluoropropan-2-yl]pyridine-3-sulfonamide] | < 500 | 172 to 174 |
| C[C@H](NS(=O)(=O)c1ccc(-c2c(C#N)c3cc(Cl)cnc3n2CC2CC2)nc1)C(F)(F)F [Cpd 63, 6-[5-chloro-3-cyano-1-(cyclopropylmethyl)-1H-pyrrolo[2,3-b]pyridin-2-yl]-N-[(2S)-1,1,1-trifluoropropan-2-yl]pyridine-3-sulfonamide] | < 500 | 226 to 227 |
| C[C@H](NS(=O)(=O)c1ccc(-c2c(C#N)c3cc(F)cnc3n2CC2CC2)nc1)C(F)(F)F [Cpd 64, 6-[3-cyano-1-(cyclopropylmethyl)-5-fluoro-1H-pyrrolo[2,3-b]pyridin-2-yl]-N-[(2S)-1,1,1-trifluoropropan-2-yl]pyridine-3-sulfonamide] | < 500 | 186 to 188 |
| COc1cnc2c(c1)c(C#N)c(-c1ccc(S(=O)(=O)NC(CF)CF)cc1)n2C1CCC1 [Cpd 65, 4-(3-cyano-1-cyclobutyl-5-methoxy-1H-pyrrolo[2,3-b]pyridin-2-yl)-N-(1,3-difluoropropan-2-yl)benzenesulfonamide] | < 500 | 215 to 218 |
| COc1cnc2c(c1)c(C#N)c(-c1ccc(S(=O)(=O)N[C@@H](C)C(F)(F)F)cn1)n2CC1CC1 [Cpd 66, 6-[3-cyano-1-(cyclopropylmethyl)-5-methoxy-1H-pyrrolo[2,3-b]pyridin-2-yl]-N-[(2S)-1,1,1-trifluoropropan-2-yl]pyridine-3-sulfonamide] | < 500 | 136 to 140 |
| C[C@H](NS(=O)(=O)c1ccc(-c2c(C#N)c3cc(Cl)ncc3n2C2CCC2)nc1)C(F)(F)F [Cpd 67, 6-(5-chloro-3-cyano-1-cyclobutyl-1H-pyrrolo[2,3-c]pyridin-2-yl)-N-[(2S)-1,1,1-trifluoropropan-2-yl]pyridine-3-sulfonamide] | < 500 | 180 to 183 |
| Cc1cnc2c(c1)c(C#N)c(-c1ccc(S(=O)(=O)N[C@H](C)C(F)(F)F)cn1)n2C1CCC1 [Cpd 68, 6-(3-cyano-1-cyclobutyl-5-methyl-1H-pyrrolo[2,3-b]pyridin-2-yl)-N-[(2R)-1,1,1-trifluoropropan-2-yl]pyridine-3-sulfonamide] | < 500 | 176 to 178 |
| Cc1cnc2c(c1)c(C#N)c(-c1ccc(S(=O)(=O)N[C@@H](C)C(F)(F)F)cn1)n2C1CCC1 [Cpd 69, 6-(3-cyano-1-cyclobutyl-5-methyl-1H-pyrrolo[2,3-b]pyridin-2-yl)-N-[(2S)-1,1,1-trifluoropropan-2-yl]pyridine-3-sulfonamide] | < 500 | 177 to 179 |
| Cc1cnc2c(c1)c(C#N)c(-c1ncc(S(=O)(=O)N[C@H](C)C(F)(F)F)cn1)n2C1CCC1 [Cpd 70, 2-(3-cyano-1-cyclobutyl-5-methyl-1H-pyrrolo[2,3-b]pyridin-2-yl)-N-[(2R)-1,1,1-trifluoropropan-2-yl]pyrimidine-5-sulfonamide] | < 500 | 186 to 188 |
| Cc1cnc2c(c1)c(C#N)c(-c1ncc(S(=O)(=O)N[C@@H](C)C(F)(F)F)cn1)n2C1CCC1 [Cpd 71, 2-(3-cyano-1-cyclobutyl-5-methyl-1H-pyrrolo[2,3-b]pyridin-2-yl)-N-[(2S)-1,1,1-trifluoropropan-2-yl]pyrimidine-5-sulfonamide] | < 500 | 186 to 188 |
| Cc1cnc2c(c1)c(C#N)c(-c1ccc(S(=O)(=O)N[C@H](C)C(F)(F)F)cc1)n2C1CCC1 [Cpd 72, 4-(3-cyano-1-cyclobutyl-5-methyl-1H-pyrrolo[2,3-b]pyridin-2-yl)-N-[(2R)-1,1,1-trifluoropropan-2-yl]benzenesulfonamide] | < 500 | 197 to 198 |
| Cc1cnc2c(c1)c(C#N)c(-c1ccc(S(=O)(=O)N[C@@H](C)C(F)(F)F)cc1)n2C1CCC1 [Cpd 73, 4-(3-cyano-1-cyclobutyl-5-methyl-1H-pyrrolo[2,3-b]pyridin-2-yl)-N-[(2S)-1,1,1-trifluoropropan-2-yl]benzenesulfonamide] | < 500 | 197 to 198 |
| Cc1cnc2c(c1)c(C#N)c(-c1ccc(S(=O)(=O)NC3(C(F)(F)F)CC3)cn1)n2C1CCC1 [Cpd 74, 6-(3-cyano-1-cyclobutyl-5-methyl-1H-pyrrolo[2,3-b]pyridin-2-yl)-N-[1-(trifluoromethyl)cyclopropyl]pyridine-3-sulfonamide] | < 500 | 245 to 247 |
| Cc1cnc2c(c1)c(C#N)c(-c1ccc(S(=O)(=O)NC3(C(F)(F)F)CC3)cc1)n2C1CCC1 [Cpd 75, 4-(3-cyano-1-cyclobutyl-5-methyl-1H-pyrrolo[2,3-b]pyridin-2-yl)-N-[1-(trifluoromethyl)cyclopropyl]benzenesulfonamide] | < 500 | 187 to 188 |
| Cc1cnc2c(c1)c(C#N)c(-c1ccc(S(=O)(=O)NC3(C)CC3)cn1)n2C1CCC1 [Cpd 76, 6-(3-cyano-1-cyclobutyl-5-methyl-1H-pyrrolo[2,3-b]pyridin-2-yl)-N-(1-methylcyclopropyl)pyridine-3-sulfonamide] | 500 to 2000 | 188 to 189 |
| Cc1cnc2c(c1)c(C#N)c(-c1ccc(S(=O)(=O)NC3(C)CC3)cc1)n2C1CCC1 [Cpd 77, 4-(3-cyano-1-cyclobutyl-5-methyl-1H-pyrrolo[2,3-b]pyridin-2-yl)-N-(1-methylcyclopropyl)benzenesulfonamide] | < 500 | 188 to 190 |
